What was measured:
[1] = test system: HUVECs; assay: RT-qPCR and Western blot of gene expression in HUVECs; assay type: cell-based, human; settings: for H19 expression (RT-qPCR): overnight treatment vs vehicle
Experimental: HUVECs (Lonza, CC-2517) were maintained in a growth medium composed of endothelial basal medium (EBM-2, CC-3156) supplemented with EGM-2 MV BulletKit (CC-4147, Lonza). Cells were used between passages P2-P5. For cytokine treatment, cells were incubated overnight with indicated concentrations of TNF-α, TNF-α plus IL-1β, or Hcy in endothelial basal medium. Cells were transfected in a 24-well plate scale. To prepare siRNA transfection solution for each well, 10 pmol of siCon, siH19, or siTET1 were mixed with 25 μl of OPTI-MEM by gentle pipetting. In parallel, 1 μl of Lipofectamine 3000 was mixed with 25 μl of OPTI-MEM. Following 5 min of incubation at RT, the two were mixed by gentle pipetting and incubated for 10 min at RT to allow siRNA/lipid complexes to form. At the end of incubation, the 50 μl of transfection solution was used to resuspend cell pellet (3×10^4 cells/well). After incubation at room temperature (RT) for 10 min, growth medium was added at a ratio of 1:9 (1 volume of transfection solution/9 volumes of growth medium) and the cell suspension was transferred to a culture plate. For cytokine treatment combined with H19 knockdown, cells were transfected with siCon or siH19 for 24 h, followed by addition of TNF-α at a final concentration of 10 ng/ml for an additional 24 h before RNA extraction. For iLet 7 rescue experiments, 10 pmol of siCon+iCon, iCon+siH19, or siH19+iLet7 were used for each well of 3×10^4 cells. Forty-eight hours after the transfection, RNA and protein were extracted for analysis.
To prepare DNA/lipid complexes for pH19/pTET1 overexpression (FIG. 23) or pTET1 overexpression rescue (FIG. 22) experiments, empty vector (0.5 μg), pH19 ([…]), or pTET1 (0.75 μg) were mixed with 1 μl of P3000 in 25 μl of OPTI-MEM by gentle pipetting. In parallel, 0.75 μl of Lipofectamin 3000 was mixed with 25 μl of OPTI-MEM. The contents in the two tubes were mixed by gentle pipetting and incubated at RT for 5 min. The resulting DNA/lipid complexes (50 μl) were added to one well of cells (8×10^4) which had been seeded in a 24-well plate in growth medium the night before. Following incubation at RT for 10 min, 300 μl of OPTI-MEM was added and cells were incubated in a tissue culture incubator for 4-6 h. […]
HUVECs in 24-well plates were dissociated with 0.25% trypsin. […] Bands on Western blot gels were quantified using ImageJ. […]
Total RNAs were extracted using PureLink RNA Mini Kit (Ambion, catalog number 12183018A). cDNA was synthesized using PrimeScript RT Reagent Kit (TAKARA, RR037A) in a 20 μl reaction containing 0.5-1 μg of total RNA. Real-time quantitative PCR was performed in a 15 μl reaction containing 0.5-1 μl of cDNA using iQSYBRGreen (Bio-Rad) in a Bio-Rad iCycler. […]

[2] = test system: UtLM and ht-UtLM leiomyoma cells; assay: RT-qPCR and Western blot of gene expression in leiomyoma cells; assay type: cell-based, human; settings: ht-UtLM cells, 24 h, 10^−8M
Excerpt: Antibodies for TET3 (GeneTex, GTX121453; used at a dilution of 1/500), TGFBR2 (Abcam, ab184948; used at a dilution of 1/1000), TSP1 (Abcam, ab85762; used at a dilution of 1/500), MED12 (Novus Biological, NB100-2357; used at a dilution of 1/500), HMGA2 (Proteintech, 20795-1-AP; used at a dilution of 1/500), GRAF1 (Cell Signaling, 8802; used at a dilution of 1/500), SPARC (Cell Signaling, 8725; used at a dilution of 1/500), COL3A1 (LS-Bio, LS-C159386; used at a dilution of 1/1000), COL4A1 (LS-Bio, LS-C100552; used at a dilution of 1/500), COL5A2 (Origene, TA809611; used at a dilution of 1/500) and GAPDH (Abcam, ab128915; used at a dilution of 1/10000) were purchased. Human H19 siRNA (siH19) and control siRNA (siCon) were previously described (Ghazal S et al., 2015, EMBO Mol Med 7:996-1003). siTET3 (Ambion, 4392420/s47239), estradiol ([…], Sigma), and progesterone ([…], Sigma) were purchased. Estradiol and progesterone were dissolved in DMSO and used at a final concentration of 10^-8M. ht-UtLM cells tested negative for mycoplasma contamination were maintained in MEM (Sigma, #M3024) supplemented with 20% fetal bovine serum, 1×MEM Vitamin Solution (Invitrogen #11120-052), 1×MEM Amino Acids Solution (Invitrogen, #11130-051), and 1×MEM Non-Essential Amino Acids (Invitrogen #11140-050). Primary UtLM-1 and UtLM-2 cells were maintained in DMEM (Gibco, #10567014) supplemented with 20% fetal bovine serum, and 1% penicillin/streptomycin, 1% amphotericin B. All cells were transfected in a 24-well plate scale. To prepare siRNA transfection solution for each well, 10 pmol (5 pmol for primary cells) of siCon, siH19, or siTET3 were mixed with 25 μl of OPTI-MEM by gentle pipetting. In parallel, 1 μl of Lipofectamine 3000 was mixed with 25 μl of OPTI-MEM. Following 5 min of incubation at room temperature, the two were mixed by gentle inverting and incubated for 10 min at room temperature to allow siRNA/lipid complexes to form. At the end of incubation, the 50 μl of transfection solution was used to re-suspend the cell pellet (3×10^4 cells). After incubation at room temperature for 10 min, growth medium was added at a ratio of 1:9 (1 volume of transfection solution/9 volumes of growth medium), and the cell suspension was transferred to a new culture dish. After overnight incubation in a tissue culture incubator, the medium was replaced with fresh growth medium. For iLet 7 rescue experiments, 10 pmol of siCon/siH19 and 10 pmol of iCon/iLet7 were used for each well of 3×10^4 cells. RNA, genomic DNA, and protein were extracted and analyzed at the indicated time points following transfection.

[3] = test system: Hnf4a P2 and P1 promoters; assay: ChIP-qPCR and QMSP of Hnf4a promoters in mouse hepatocytes; assay type: cell-based
Experimental: Genomic DNA was extracted from mouse primary hepatocytes grown in 12-well plates using Quick-gDNA MicroPrep (Zymo Research Corporation, D3021) according to the manufacturer's instructions. For bisulfite treatment, 480 ng of DNA was used for each column using EZ DNA Methylation-Gold Kit (Zymo, D5006). 100 μl of elution buffer was used to elute DNA from each column. Real-time quantitative PCR was performed in a 15 μl reaction containing 5 μl of the eluted DNA using iQSYBRGreen in a Bio-Rad iCycler. Two sets of PCR primers were designed: one for unmethylated and one for methylated DNA sequences. The PCR primers for methylated DNA were used at a final concentration of 0.6 μM in each PCR reaction. PCR was performed by initial denaturation at 95° C. for 5 min, followed by 40 cycles of 30 sec at 95° C., 30 sec at 60° C., and 30 sec at 72° C. Specificity was verified by melting curve analysis. The threshold cycle (Ct) values of each sample were used in the post-PCR data analysis. The ratio of methylated versus unmethylated DNA sequences are presented.
Experiments were performed in a 12-well plate scale using the Pierce Agarose ChIP Kit (Thermo Scientific, 26156) according to the manufacturer's instructions with minor modifications. Briefly, agarose beads were used to pre-bind with antibodies (anti-TET3, anti-Ser-5(P)-RNAP, or pre-immune IgGs as negative controls) overnight at 4° C. The next day, hepatocytes were crosslinked with 1% formaldehyde at room temperature for 10 min, and the reaction was stopped by 1×glycine. ChIPs were carried out overnight at 4° C. Levels of ChIP-purified DNA were determined with qPCR (see Table 1 for primer sequences). The relative enrichments of the indicated DNA regions were calculated using the Percent Input Method according to the manufacturer's instructions and are presented as % input.

[4] = test system: primary human hepatocytes; assay: qPCR of gene expression in primary human hepatocytes; assay type: cell-based; settings: glucagon 20 nM vs vehicle
Experimental: Mouse primary hepatocytes were prepared as previously described (Zhang N et al., 2018, JCI Insight 3:e120304). Cells were maintained in Williams' Medium (GIBCO, 12551) with 5% FBS, 1% 1 M HEPES buffer (GIBCO, 15630-080), 1% L-Glutamine (GIBCO, 25030-081), 1% SPA (GIBCO, 15240-062), 4 mg/L insulin (GIBCO, 12585-014) and 1 μM dexamethasone (Sigma, D4902). For TET3 overexpression experiments, freshly isolated mouse primary hepatocytes were seeded in 12-well collagen 1-coated plates (BD Biosciences Discovery Labware) at 4×10^5 cells/well and infected with Ad-GFP or Ad-TET3 at 4,000 gc/cell at 3 h after seeding. For TET3 or HNF4α P2 isoform knockdown experiments, cells seeded in 12-well plates were infected with AAV-scr, AAV-siTET3, or AAV-siP2 at 6,000 gc/cell at 3 h after seeding. Medium was changed the next day and glucagon was added at a final concentration of 20 nM. Glucose production assays were carried out at 60 h after infection. […]
Total RNAs were extracted from liver or pancreas tissues or from primary hepatocytes using PureLink RNA Mini Kit. cDNA was synthesized using PrimeScript RT Reagent Kit in a 20 μl reaction containing 0.5-1 μg of total RNA. Real-time quantitative PCR was performed in a 15 μl reaction containing 0.5-1 μl of cDNA using iQSYBRGreen in a Bio-Rad iCycler. […]

[5] = test system: mouse primary hepatocytes; assay: qPCR and immunoblotting of gene expression in mouse primary hepatocytes; assay type: cell-based
Experimental: Mouse primary hepatocytes were prepared as previously described (Zhang N et al., 2018, JCI Insight 3:e120304). Cells were maintained in Williams' Medium (GIBCO, 12551) with 5% FBS, 1% 1 M HEPES buffer (GIBCO, 15630-080), 1% L-Glutamine (GIBCO, 25030-081), 1% SPA (GIBCO, 15240-062), 4 mg/L insulin (GIBCO, 12585-014) and 1 μM dexamethasone (Sigma, D4902). For TET3 overexpression experiments, freshly isolated mouse primary hepatocytes were seeded in 12-well collagen 1-coated plates (BD Biosciences Discovery Labware) at 4×10^5 cells/well and infected with Ad-GFP or Ad-TET3 at 4,000 gc/cell at 3 h after seeding. For TET3 or HNF4α P2 isoform knockdown experiments, cells seeded in 12-well plates were infected with AAV-scr, AAV-siTET3, or AAV-siP2 at 6,000 gc/cell at 3 h after seeding. Medium was changed the next day and glucagon was added at a final concentration of 20 nM. Glucose production assays were carried out at 60 h after infection. Human primary hepatocytes (M00995, Millipore, Sigma) were purchased, thawed, and maintained in InVitroGRO™ CP Medium (Sigma-Aldrich, Z990003) containing 2% Torpedo™ Antibiotic Mix. The cells were seeded in 12-well plates coated with collagen 1 (Millipore, 08-115). Infection of AAV-scr, AAV-sihTET3, and AAV-sihP2 were performed the next day after cell thawing and followed the same dosing protocol for the mouse primary hepatocytes.
Total RNAs were extracted from liver or pancreas tissues or from primary hepatocytes using PureLink RNA Mini Kit. cDNA was synthesized using PrimeScript RT Reagent Kit in a 20 μl reaction containing 0.5-1 μg of total RNA. Real-time quantitative PCR was performed in a 15 μl reaction containing 0.5-1 μl of cDNA using iQSYBRGreen in a Bio-Rad iCycler. PCR was performed by initial denaturation at 95° C. for 5 min, followed by 40 cycles of 30 sec at 95° C., 30 sec at 60° C., and 30 sec at 72° C. Specificity was verified by melting curve analysis. The Ct values of each sample were used in the post-PCR data analysis. Gene expression levels were normalized against house-keeping genes GAPDH and RPLP0.
Primary hepatocytes in 12-well plates were dissociated with 0.25% trypsin. After […] centrifugation at 1000 rpm for 5 min, supernatants were discarded and cell pallets were homogenized in 2×SDS-sample buffer (100 ul/well), followed by heating at 100° C. for 5 min, with occasional vortexing. For liver tissue samples, 5 mg of tissues were minced and 200 μl of 2× SDSsample buffer was added, followed by homogenization on ice using a sonicator (Qsonica, Q125-110). Homogenized samples were heated at 100° C. for 5 min and then centrifuged at 12,000 g for 5 min to remove insoluble materials before loading onto 12% SDS gels (5 μl/well), followed by Western blot analysis. Bands on Western blot gels were quantified using ImageJ. GAPDH was used as a loading control.

[6] = glucagon-stimulated versus vehicle treated hepatocytes

N[C@@H](CCS)C(=O)O [Hcy, L-Homocysteine]
H19 expression (RT-qPCR) [1]: dose-dependently upregulates H19

CC(=O)[C@H]1CC[C@H]2[C@@H]3CCC4=CC(=O)CC[C@]4(C)[C@H]3CC[C@]12C [progesterone]
H19 expression [2]: did not affect H19 expression

IL-1β: Recombinant human IL-1β (R&D Systems, 201-LB), combined with TNF-α
H19 expression (RT-qPCR) [1]: additive effect

TNF-α
expression of TET1, TGFBR2 and TSP1 (RT-qPCR) ([1]; TNF-α 10 ng/ml 24 h vs vehicle): upregulated expression of TET1, TGFBR2 and TSP1
H19 expression (RT-qPCR) [1]: stimulates H19 expression in a dose-dependent manner

glucagon
binding of TET3 to Hnf4a promoters (ChIP-qPCR) ([3]; glucagon 20 nM 24 h vs vehicle): dramatically increased binding of TET3 to P2 but not P1
methylation of P2 (QMSP) ([3]; glucagon 20 nM 24 h vs vehicle): significantly decreased methylation of P2
RNAP association with P1 (ChIP) [3, 6]: no change in RNAP association with P1
enrichment in RNAP at the P2 promoter (ChIP) [3, 6]: approximately 5 fold
HNF4α expression from P2 and P1 [4]: stimulated expression from P2 (but not P1)
expression of PCK1 and G6PC [4]: increased expression of PCK1 and G6PC
HNF4α P2 usage (qPCR) ([5]; H19 KO hepatocytes, glucagon 20 nM 24 h): failed to do so
Tet3 expression (qPCR) ([5]; H19 KO primary hepatocytes, glucagon 20 nM 24 h): no longer stimulated Tet3 expression
Pck1 and G6pc expression (qPCR) ([5]; WT hepatocytes, glucagon 20 nM vs vehicle): increased expression of Pck1 and G6pc
HNF4α P2 and P1 isoform expression (qPCR) ([5]; WT primary hepatocytes): increased P2 usage in WT hepatocytes
H19 and Tet3 expression (qPCR) ([5]; WT primary hepatocytes, glucagon 20 nM 24 h or AAV-H19 48 h without glucagon): readily induced
